Values of other authors, collected in patent US10446758B2, “Hole transporting material, OLED display panel and electronic device comprising the same” (SHANGHAI TIANMA AM-OLED CO., LTD., priority 2016, dated 2019).

Details: prior art material, background statement

solubility (in words): good
Structure (SMILES): CC1(C)c2ccccc2-c2ccc(N(c3ccc4c(c3)C3(c5ccccc5-c5ccccc53)c3ccccc3-4)c3ccccc3-c3ccccc3)cc21
